Measured values as given in ChEMBL document CHEMBL1177708, “Design, synthesis, and biological evaluation of a novel class of gamma-secretase modulators with PPARgamma activity” (J Med Chem, 2010).
Calls of active or inactive are those of the source. The rule behind the calls is not given here.

What was measured:
[1] = molecular target: T1, Prostaglandin G/H synthase 2 (Homo sapiens) (UniProt P35354); assay: Inhibition of human recombinant COX2 assessed as residual activity at 10 uM after 5 mins
T1 sequence (whole entry): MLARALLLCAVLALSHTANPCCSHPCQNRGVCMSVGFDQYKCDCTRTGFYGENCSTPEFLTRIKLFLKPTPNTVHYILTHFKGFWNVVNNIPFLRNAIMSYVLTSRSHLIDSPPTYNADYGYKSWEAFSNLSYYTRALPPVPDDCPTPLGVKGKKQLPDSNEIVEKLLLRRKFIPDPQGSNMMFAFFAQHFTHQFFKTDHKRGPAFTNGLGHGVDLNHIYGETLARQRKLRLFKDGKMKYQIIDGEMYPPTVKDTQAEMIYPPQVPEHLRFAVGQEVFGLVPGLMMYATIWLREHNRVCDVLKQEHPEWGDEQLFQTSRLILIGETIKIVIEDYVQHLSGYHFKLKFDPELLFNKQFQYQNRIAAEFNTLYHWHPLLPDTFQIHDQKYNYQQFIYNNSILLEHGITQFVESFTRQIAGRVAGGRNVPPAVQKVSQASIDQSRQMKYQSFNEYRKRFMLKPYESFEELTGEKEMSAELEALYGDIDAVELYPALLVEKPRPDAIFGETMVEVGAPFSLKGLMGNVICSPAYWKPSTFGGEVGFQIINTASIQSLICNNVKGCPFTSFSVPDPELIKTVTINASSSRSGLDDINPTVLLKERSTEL

[2] = molecular target: T2, Peroxisome proliferator-activated receptor alpha (Homo sapiens) (UniProt Q07869); assay: Agonist activity at human PPARalpha-LBD expressed in COS7 cells co-transfected with Gal4 at 10 uM by luciferase based transactivation assay; assay type: functional, cell-based; conditions: COS-7
T2 sequence (whole entry): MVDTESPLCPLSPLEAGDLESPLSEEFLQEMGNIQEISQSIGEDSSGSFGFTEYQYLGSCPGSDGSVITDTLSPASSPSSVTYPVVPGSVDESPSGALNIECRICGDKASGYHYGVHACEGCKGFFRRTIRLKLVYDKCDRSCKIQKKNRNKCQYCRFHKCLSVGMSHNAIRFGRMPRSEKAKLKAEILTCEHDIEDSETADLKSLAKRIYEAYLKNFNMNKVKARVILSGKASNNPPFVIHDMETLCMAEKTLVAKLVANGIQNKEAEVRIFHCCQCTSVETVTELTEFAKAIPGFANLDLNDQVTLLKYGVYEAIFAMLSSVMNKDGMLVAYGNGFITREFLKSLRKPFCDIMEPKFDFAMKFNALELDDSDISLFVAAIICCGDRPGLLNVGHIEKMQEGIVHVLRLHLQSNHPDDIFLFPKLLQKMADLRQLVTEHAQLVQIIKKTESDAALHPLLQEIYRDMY

[3] = molecular target: T3, Peroxisome proliferator-activated receptor delta (Homo sapiens) (UniProt Q03181); assay: Agonist activity at human PPARdelta-LBD expressed in COS7 cells co-transfected with Gal4 at 10 uM by luciferase based transactivation assay; assay type: functional, cell-based; conditions: COS-7
T3 sequence (whole entry): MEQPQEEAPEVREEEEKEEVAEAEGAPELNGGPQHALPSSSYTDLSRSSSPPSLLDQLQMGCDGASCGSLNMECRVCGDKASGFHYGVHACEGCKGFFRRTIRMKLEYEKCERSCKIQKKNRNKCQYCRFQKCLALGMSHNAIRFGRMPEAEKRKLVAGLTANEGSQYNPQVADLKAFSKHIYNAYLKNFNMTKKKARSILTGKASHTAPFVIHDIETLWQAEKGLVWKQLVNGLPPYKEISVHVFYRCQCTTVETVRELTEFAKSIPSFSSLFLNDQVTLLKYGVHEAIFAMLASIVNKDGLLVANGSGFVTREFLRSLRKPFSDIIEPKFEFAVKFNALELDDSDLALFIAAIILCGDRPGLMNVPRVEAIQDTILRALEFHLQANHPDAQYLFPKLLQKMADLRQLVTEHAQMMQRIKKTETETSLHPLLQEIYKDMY

[4] = molecular target: T4, Peroxisome proliferator-activated receptor gamma (Homo sapiens, UniProt P37231); assay: Agonist activity at human PPARgamma-LBD expressed in COS7 cells co-transfected with Gal4 by luciferase based transactivation assay; assay type: functional, cell-based, COS-7
T4 sequence (P37231 whole entry): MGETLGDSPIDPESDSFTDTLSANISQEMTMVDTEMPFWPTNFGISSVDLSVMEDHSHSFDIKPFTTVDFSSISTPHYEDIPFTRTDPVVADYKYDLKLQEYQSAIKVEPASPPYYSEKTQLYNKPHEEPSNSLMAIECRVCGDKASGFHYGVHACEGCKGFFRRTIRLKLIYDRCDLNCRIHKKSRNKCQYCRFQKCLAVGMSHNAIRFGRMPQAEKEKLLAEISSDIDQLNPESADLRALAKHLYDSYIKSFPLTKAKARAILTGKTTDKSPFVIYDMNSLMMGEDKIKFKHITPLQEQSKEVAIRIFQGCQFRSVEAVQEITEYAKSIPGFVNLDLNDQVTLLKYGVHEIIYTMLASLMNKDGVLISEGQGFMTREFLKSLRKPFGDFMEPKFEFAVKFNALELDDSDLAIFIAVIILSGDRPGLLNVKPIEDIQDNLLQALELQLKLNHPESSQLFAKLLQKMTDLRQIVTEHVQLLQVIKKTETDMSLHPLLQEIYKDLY

[5] = molecular target: T5, Peroxisome proliferator-activated receptor gamma (Homo sapiens) (UniProt P37231); assay: Agonist activity at human PPARgamma-LBD expressed in COS7 cells co-transfected with Gal4 by luciferase based transactivation assay relative to pioglitazone; assay type: functional, cell-based; conditions: COS-7
T5 sequence (whole entry): T4 sequence (P37231 whole entry)

[6] = Modulation of gamma-secretase-mediated cleavage of human APP expressed in CHO cells with human presenilin-1 assessed as activation of amyloid beta38 production after 24 hrs by ELISA; assay type: cell-based
CHO [7] = assay: Modulation of gamma-secretase-mediated notch signaling expressed in CHO cells transfected with Gal4-DNA-binding/VP16 transactivation domain assessed as reduction of reporter activity at 5 to 40 uM after 24 hrs; assay type: cell-based
CHO [8] = assay: Cytotoxicity against CHO cells at 60 uM after 24 hrs by Alamar blue assay; assay type: cell-based, Cricetulus griseus; conditions: chinese hamster
[9] = molecular target: T6, Prostaglandin G/H synthase 1 (Ovis aries) (UniProt P05979); assay: Inhibition of ovine COX1 assessed as residual activity at 10 uM after 5 mins
T6 sequence (whole entry): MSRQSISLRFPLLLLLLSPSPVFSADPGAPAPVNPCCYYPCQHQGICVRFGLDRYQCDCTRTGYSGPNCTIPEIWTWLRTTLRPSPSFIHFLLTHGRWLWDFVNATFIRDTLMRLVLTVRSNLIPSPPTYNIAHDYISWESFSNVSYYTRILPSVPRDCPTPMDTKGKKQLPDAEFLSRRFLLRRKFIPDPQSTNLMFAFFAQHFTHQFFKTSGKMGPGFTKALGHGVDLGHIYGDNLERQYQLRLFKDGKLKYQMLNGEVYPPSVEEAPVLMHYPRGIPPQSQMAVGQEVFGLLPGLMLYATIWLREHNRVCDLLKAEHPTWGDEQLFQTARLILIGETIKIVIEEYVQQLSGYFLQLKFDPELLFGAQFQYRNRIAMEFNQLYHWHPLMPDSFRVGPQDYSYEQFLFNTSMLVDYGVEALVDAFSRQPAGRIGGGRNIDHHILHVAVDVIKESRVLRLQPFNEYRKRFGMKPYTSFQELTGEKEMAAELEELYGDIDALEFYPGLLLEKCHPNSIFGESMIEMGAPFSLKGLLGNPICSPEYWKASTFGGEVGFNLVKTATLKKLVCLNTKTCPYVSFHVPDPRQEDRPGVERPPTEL

[10] = molecular target: T7, Prostaglandin G/H synthase 1 (Ovis aries, UniProt P05979)
T7 sequence (P05979 whole entry): T6 sequence (whole entry)
Description: Inhibition of ovine COX1 after 5 mins

cells = conditions: CHO, 24 h
Description: Modulation of gamma-secretase-mediated cleavage of human APP expressed in CHO cells with human presenilin-1 assessed as inhibition of amyloid beta42 production after 24 hrs by ELISA

Row | Activity [1] [%] | Activity [2] | Activity [3] | EC50 [4] [µM] | Emax [5] [%] | EC50 [6] [µM] | Activity [9] [%] | IC50 [10] [µM] | IC50 (cells) [µM] | SMILES | Activity (CHO [7]) | Activity (CHO [8])
1 | 49.5 | inactive | inactive | 6.6 | 71 | 4.6 | 52.7 | 13.4 | 5.1 | CCCCC(Sc1nc(OCCC2CCCCC2)cc(OCCC2CCCCC2)n1)C(=O)O (configuration not stated) | inactive | Non-toxic
2 | 53.9 | inactive | inactive | 10 | 55 | 16.4 | 78.8 | – | 22.9 | CCCCC(Sc1nc(OCCCCc2ccccc2)cc(OCCCCc2ccccc2)n1)C(=O)O (configuration not stated) | – | Non-toxic
3 | – | – | – | – | – | – | – | 13 | 305 | CC(C(=O)O)c1ccc2c(c1)[nH]c1ccc(Cl)cc12 (configuration not stated) [CARPROFEN] | – | –
4 | 84.7 | inactive | inactive | – | 127 | 9 | 68.2 | – | 17.2 | CCCCC(Sc1nc(OCCC2CCCC2)cc(OCCC2CCCC2)n1)C(=O)O (configuration not stated) | – | Non-toxic
5 | 51.9 | inactive | inactive | 8.9 | 71 | 16.4 | 78.8 | – | 30.9 | CCCCC(Sc1nc(OCCCc2ccccc2)cc(OCCCc2ccccc2)n1)C(=O)O (configuration not stated) | – | Non-toxic
6 | – | – | – | – | – | – | – | – | 25 | COc1ccc2c(c1)c(CC(=O)O)c(C)n2C(=O)c1ccc(Cl)cc1 [INDOMETHACIN] | – | –
7 | 90.9 | inactive | inactive | 8.3 | 61 | 11.3 | 64.2 | 18.7 | 22.8 | CCCCC(Sc1nc(OCCc2ccccc2)cc(OCCc2ccccc2)n1)C(=O)O (configuration not stated) | – | Non-toxic
8 | 82.6 | inactive | inactive | 7 | 65 | – | 88.8 | – | > 40 | CCCCC(Sc1nc(OCCc2ccc(C#N)cc2)cc(OCCc2ccc(C#N)cc2)n1)C(=O)O (configuration not stated) | – | Non-toxic
9 | 80.5 | inactive | inactive | 11 | 69 | 10.9 | 72.4 | – | 28.2 | CCCCC(Sc1nc(OCCC(C)C)cc(OCCC(C)C)n1)C(=O)O (configuration not stated) | – | Non-toxic
10 | 56.9 | inactive | inactive | 6.1 | 57 | 31.1 | 84.6 | – | 41.6 | CCC(Sc1nc(OCCc2ccccc2)cc(OCCc2ccccc2)n1)C(=O)O (configuration not stated) | – | Non-toxic
11 | 63.8 | inactive | inactive | 8.8 | 59 | 24.2 | 61.8 | – | 30.4 | CCCCCCC(Sc1nc(OCCc2ccccc2)cc(OCCc2ccccc2)n1)C(=O)O (configuration not stated) | – | Non-toxic
12 | 91.7 | inactive | inactive | 3.7 | 111 | > 40 | 91.8 | – | > 40 | O=C(O)CSc1nc(OCCc2ccccc2)cc(OCCc2ccccc2)n1 | – | Non-toxic
13 | 87.9 | inactive | inactive | 4.3 | 79 | 24 | 97.7 | – | > 40 | CCCCC(Sc1nc(OCCC2CC2)cc(OCCC2CC2)n1)C(=O)O (configuration not stated) | – | Non-toxic
14 | 75.8 | inactive | inactive | 10.3 | 115 | 5.5 | 73 | – | 8.6 | CCCCC(Sc1nc(OCCc2ccc(OC(F)(F)F)cc2)cc(OCCc2ccc(OC(F)(F)F)cc2)n1)C(=O)O (configuration not stated) | – | Non-toxic
15 | – | – | – | – | – | – | – | 0.05 | 34 | CSc1ccc(/C=C2/C(C)=C(CC(=O)O)c3cc(F)ccc32)cc1 [SULINDAC SULFIDE] | – | –
16 | 92.8 | inactive | inactive | 10.4 | 62 | 13.5 | 83.5 | – | 32.6 | CCCC[C@H](Sc1nc(OCCc2ccccc2)cc(OCCc2ccccc2)n1)C(=O)O | – | Non-toxic
17 | 93.3 | inactive | inactive | 7.5 | 63 | 6.4 | 57.2 | – | 13 | CCCCC(Sc1nc(OCCc2ccc(C)cc2)cc(OCCc2ccc(C)cc2)n1)C(=O)O (configuration not stated) | – | Non-toxic
